Data: ChEMBL document CHEMBL3217629, “Discovery of novel morpholinoquinoxalines as PI3K inhibitors by pharmacophore-based screening” (Medchemcomm, 2012)

Key:
HL-60 = assay: Cytotoxicity against human HL60 cells after 72 hrs by MTT assay; assay type: functional, cell-based; settings: HL-60, 72 h
HCT-116 = assay: cells; settings: Homo sapiens, HCT-116, 72 h
PC-3 = assay: cells; settings: Homo sapiens, PC-3, 72 h
Description: Cytotoxicity against human PC3 cells after 72 hrs by MTT assay

[1] = biological target: Phosphatidylinositol 4,5-bisphosphate 3-kinase catalytic subunit alpha isoform (Homo sapiens, UniProt P42336); assay: Inhibition of recombinant human PI3Kalpha using diC8-PI(4,5)P2 as substrate after 3 hrs by fluorescence polarization method
Sequence of Phosphatidylinositol 4,5-bisphosphate 3-kinase catalytic subunit alpha isoform (P42336 whole entry, canonical isoform): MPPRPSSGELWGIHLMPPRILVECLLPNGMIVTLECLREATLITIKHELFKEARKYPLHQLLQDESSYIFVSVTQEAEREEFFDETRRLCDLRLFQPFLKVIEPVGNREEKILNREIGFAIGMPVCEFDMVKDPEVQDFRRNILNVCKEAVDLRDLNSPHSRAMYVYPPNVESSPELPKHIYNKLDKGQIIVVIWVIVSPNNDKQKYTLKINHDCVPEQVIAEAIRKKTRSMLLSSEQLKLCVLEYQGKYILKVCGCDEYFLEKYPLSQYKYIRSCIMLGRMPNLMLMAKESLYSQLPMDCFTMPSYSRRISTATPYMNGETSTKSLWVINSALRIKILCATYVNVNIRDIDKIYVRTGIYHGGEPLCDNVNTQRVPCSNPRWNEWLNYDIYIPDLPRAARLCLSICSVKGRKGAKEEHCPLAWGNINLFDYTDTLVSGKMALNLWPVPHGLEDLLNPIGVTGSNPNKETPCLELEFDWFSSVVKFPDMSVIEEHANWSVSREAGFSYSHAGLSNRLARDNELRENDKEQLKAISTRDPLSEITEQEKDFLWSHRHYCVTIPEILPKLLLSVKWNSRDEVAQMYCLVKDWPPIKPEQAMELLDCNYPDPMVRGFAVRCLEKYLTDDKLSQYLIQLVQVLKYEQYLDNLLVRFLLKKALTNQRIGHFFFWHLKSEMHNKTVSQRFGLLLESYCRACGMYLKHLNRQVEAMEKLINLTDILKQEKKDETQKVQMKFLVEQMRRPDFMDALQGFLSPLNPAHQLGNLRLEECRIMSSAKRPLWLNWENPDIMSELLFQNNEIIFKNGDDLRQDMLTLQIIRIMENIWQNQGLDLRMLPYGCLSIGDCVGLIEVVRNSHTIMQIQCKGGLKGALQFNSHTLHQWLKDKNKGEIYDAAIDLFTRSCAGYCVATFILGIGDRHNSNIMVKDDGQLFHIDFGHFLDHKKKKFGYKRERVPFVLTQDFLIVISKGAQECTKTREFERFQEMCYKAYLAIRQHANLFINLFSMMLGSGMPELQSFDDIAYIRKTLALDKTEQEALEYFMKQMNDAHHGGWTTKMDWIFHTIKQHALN

A549 = assay: Cytotoxicity against human A549 cells after 72 hrs by MTT assay; assay type: functional, cell-based; settings: A549, 72 h

IC50 (HCT-116)	IC50 (PC-3)	IC50 [1]	Compound	IC50 (HL-60)	IC50 (A549)
10.5 µM	9.34 µM	1.58 µM	Cc1ccc(S(=O)(=O)c2nc3ccccc3nc2N2CCOCC2)cc1	0.95 µM	3.3 µM
35 µM	25.4 µM	2.89 µM	O=S(=O)(c1ccc(Br)cc1)c1nc2ccccc2nc1N1CCOCC1	3.41 µM	6.65 µM
3.61 µM	3.4 µM	2.49 µM	O=S(=O)(c1ccc(F)cc1)c1nc2ccccc2nc1N1CCOCC1	1.74 µM	5.64 µM

Second part, the compound before the results:

Compound	IC50 (HCT-116)	IC50 (PC-3)	IC50 [1]	IC50 (HL-60)	IC50 (A549)
COc1ccc(S(=O)(=O)c2nc3ccccc3nc2N2CCOCC2)cc1	> 50 µM	0.88 µM	1.4 µM	4.8 µM	19.4 µM
c1ccc(Sc2nc3ccccc3nc2N2CCOCC2)cc1	45.6 µM	> 50 µM	> 50 µM	5.18 µM	7.25 µM
O=S(=O)(c1ccccc1)c1nc2ccccc2nc1N1CCCCC1	6.48 µM	26.9 µM	21.6 µM	27.1 µM	> 50 µM
